# Reference: US20260116867A1, “PROTEOLYSIS TARGETING CHIMERAS FOR HUMAN PREGNANE X RECEPTOR AND FOR DEGRADATION OF GSPT1” (ST. JUDE CHILDREN'S RESEARCH HOSPITAL, priority 2022, published 2026)
# Experiments:
# [1] = system: SNU—C4 3xFLAG-PXR KI cells; test: TMT-MS whole-proteome quantification in SNU—C4 3xFLAG-PXR KI cells; assay type: cell-based, human; conditions: 5 μM, 12 h vs DMSO; 9,692 proteins detected
# Method: The next day, 0.5% DMSO or 5 μM SJPYT-195 was added to triplicate dishes. After 12 h, the media were removed, cells were washed twice with ice cold PBS, 500 μL of 50 mM HEPES (pH 8.0) and 8 M urea was added to each dish, cells were scraped and transferred to 1.5 mL tubes, and the tubes were frozen on dry ice and stored at −80° C. Processing for TMT-MS was conducted according to a previously optimized protocol. To profile the whole proteome, the cell lysates (approximately 100 μg of protein per sample) were proteolyzed with Lys-C(Wako) at an enzyme-to-substrate ratio of 1:100 (w/w) for 3 h at room temperature. Samples were diluted with 50 mM HEPES (pH 8.5) to a final 2 M urea concentration. […]
# Dried peptides were resuspended in 50 μL 100 mM HEPES (pH 8.5) and labeled with TMTpro 16plex Label Reagents [Thermo Fisher Scientific, 10 μg/μL in 100% ACN, 1:2 (w/w) ratio, room temperature for 1 h]. […] Fractions were dried in SpeedVac and resuspended in 5 μL 5% FA/1% trifluoroacetic acid immediately prior to mass spectrometry and quantitation analysis. […]
# MS raw files were converted to mzXML files, and database searches were performed against Uniprot HUMAN protein database using our in-house developed JUMP pipeline. […] TMT-based quantification and statistical analysis were performed based on our previous method. […]
# PXR RNA = PXR RNA level in SNU—C4 3xFLAG-PXR KI cells; assay type: cell-based, human
smiles,measurement,setting,value
"COc1ccc(OC)c(-n2nnc(C(=O)Nc3cc(Oc4cccc5c4C(=O)N(C4CCC(=O)NC4=O)C5=O)cc(C(C)(C)C)c3)c2C)c1 (stereo not drawn) [Compound M4, N-(3-(tert-butyl)-5-((2-(2,6-dioxopiperidin-3-yl)-1,3-dioxoisoindolin-4-yl)oxy)phenyl)-1-(2,5-dimethoxyphenyl)-5-methyl-1H-1,2,3-triazole-4-carboxamide]",proteins changed at whole-proteome scale (selectivity),[1],"five down-regulated proteins (GSPT1, GSPT2, ZFP91, CYP1A1, and BRIP1) and one upregulated protein (FOS)"
same,reduction of PXR RNA,"PXR RNA; 5 μM, 12 h",negligible reduction
same,PXR RNA level,"PXR RNA; time-course, FIG. 5C",drastically reduced PXR RNA level
